Values of other authors, collected in patent US12109304B1, “Oral patch for treating mouth ulcers” (Xiamen LP Pharmaceutical Co., Ltd., priority 2023, dated 2024).

Structure (SMILES): CCCCNc1ccc(C(=O)OCCN(C)C)cc1.Cl [Tetracaine hydrochloride]
- Solubility in ethanol / alcohol (ethanol (alcohol)): soluble
- Solubility in water (water): soluble
